The values below come from PMC5372259, “Purification, characterization and amino acid content of cholesterol oxidase produced by Streptomyces aegyptia NEAE 102” (BMC Microbiology, 2017).

This assay deals with T1, cholesterol oxidase from Streptomyces aegyptia NEAE 102.
T1 construct: gene choA; native extracellular enzyme purified from culture supernatant (ammonium sulfate, DEAE Sepharose CL-6B); 46 kDa by SDS-PAGE
The assay is described as follows: peroxidase-coupled H2O2 assay (4-aminoantipyrine/phenol, […] nm); Michaelis-Menten nonlinear regression. The assay is classed as biochemical. The note with it: pH 7.0 potassium phosphate, 37 °C, Triton X-100; O2 as co-substrate.

`CC(C)CCC[C@@H](C)[C@H]1CC[C@H]2[C@@H]3CC=C4C[C@@H](O)CC[C@]4(C)[C@H]3CC[C@]12C` [cholesterol]: the Km was 152 µM.
